From ChEMBL document CHEMBL1124314, “Development of phosphonate derivatives of gadolinium chelates for NMR imaging of calcified soft tissues” (J Med Chem, 1989)
Blank lines part the entries; values can stand above or below the compound they belong to.

Assays:
[1] = organism: Rattus norvegicus; test: Biodistribution in rat bone in the presence of NCAGd/0.01 M lig; assay type: ADME, organism-based, Bone element; settings: in vivo
[2] = organism: Rattus norvegicus; test: Biodistribution in rat muscle in the presence of NCAGd/0.01 M lig; assay type: ADME, organism-based, Muscle tissue; settings: in vivo
[3] = organism: Rattus norvegicus; test: Biodistribution in rat spleen in the presence of NCAGd/0.01 M lig; assay type: ADME, organism-based; settings: in vivo
[4] = organism: Rattus norvegicus; test: Uptake of [GD] in bone 1 hr post injection with 0.01(N) of the compound; assay type: functional, Bone element
[5] = organism: Rattus norvegicus; test: Biodistribution in rat kidney in the presence of NCAGd/0.01 M lig; assay type: ADME, organism-based; settings: in vivo
[6] = Ratio of uptake of [GD] in bone 1 hr post injection with 0.01(A) to that of muscle; assay type: functional
[7] = Ratio of uptake of [GD] in bone 1 hr post injection with 0.01(A) to that of blood; assay type: functional
[8] = organism: Rattus norvegicus; test: Biodistribution in rat liver by in the presence of NCAGd/0.01 M lig; assay type: ADME, organism-based; settings: in vivo
[9] = organism: Rattus norvegicus; test: Biodistribution in rat heart in the presence of NCAGd/0.01 M lig; assay type: ADME, organism-based; settings: in vivo
[10] = Ratio of uptake of [GD] in bone 1 hr post injection with 0.01(N) to that of muscle; assay type: functional
[11] = organism: Rattus norvegicus; test: Biodistribution in rat blood in the presence of NCAGd/0.01 M lig; assay type: ADME, organism-based; settings: in vivo
[12] = Ratio of uptake of [GD] in bone 1 h post injection with 0.01(N) to that of blood; assay type: functional
[13] = organism: Rattus norvegicus; test: Uptake of [GD] in bone 1 hr post injection with NCA GD dose; assay type: functional, Bone element
[14] = organism: Rattus norvegicus; test: Uptake of [GD] in bone 1 hr post injection with 0.01(A) of the compound; assay type: functional, Bone element
[15] = Ratio of uptake of [GD] in bone 1 hr post injection with 0.01 to that of muscle; assay type: functional
[16] = organism: Rattus norvegicus; test: Uptake of [GD] in bone 1 hr post injection with 0.01 (N) of the compound
[17] = Ratio of uptake of [GD] in bone 1 hr post injection with 0.01 (N) to that of blood
[18] = Ratio of uptake of [GD] in bone 1 hr post injection with 0.01 (N) to that of muscle
[19] = Ratio of uptake of [GD] in bone 1 hr post injection with NCA GD dose to that of muscle; assay type: functional
[20] = organism: Rattus norvegicus; test: Uptake of [GD] in bone 1 h post injection with 0.01 of the compound; assay type: functional, Bone element
[21] = tested on: Rattus norvegicus; test: Biodistribution in rat liver in the presence of 50 Gd/kg at 6 hr; assay type: ADME, organism-based; settings: in vivo
[22] = tested on: Rattus norvegicus; test: Biodistribution in rat s. intestine in the presence of 50 Gd/kg at 2 hr; assay type: ADME, organism-based; settings: in vivo
[23] = organism: Rattus norvegicus; test: Biodistribution in rat heart in the presence of 0.05 M Gd/0.15 M lig; assay type: ADME, organism-based; settings: in vivo
[24] = tested on: Rattus norvegicus; test: Biodistribution in rat liver by in the presence 50 Gd/kg at 15 min; assay type: ADME, organism-based; settings: in vivo, 0.25 h
[25] = organism: Rattus norvegicus; test: Biodistribution in rat liver in the presence of NCA Gd/0.01 M lip; assay type: ADME, organism-based; settings: in vivo
[26] = organism: Rattus norvegicus; test: Biodistribution in rat kidney in the presence of NCA Gd/0.01 M lip; assay type: ADME, organism-based; settings: in vivo
[27] = tested on: Rattus norvegicus; test: Biodistribution in rat liver in the presence of 50 Gd/kg at 2 hr; assay type: ADME, organism-based; settings: in vivo
[28] = tested on: Rattus norvegicus; test: Biodistribution in rat spleen in the presence of 50 Gd/kg at 6 hr; assay type: ADME, organism-based; settings: in vivo
[29] = organism: Rattus norvegicus; test: Biodistribution in rat bone in the presence of 0.05 M Gd/0.15 M lig; assay type: ADME, organism-based, Bone element; settings: in vivo
[30] = tested on: Rattus norvegicus; test: Biodistribution in rat stomach in the presence of 50 Gd/kg at 2 hr; assay type: ADME, organism-based; settings: in vivo
[31] = tested on: Rattus norvegicus; test: Biodistribution in rat blood in the presence of 50 Gd/kg at 2 hr; assay type: ADME, organism-based; settings: in vivo
[32] = organism: Rattus norvegicus; test: Biodistribution in rat spleen in the presence of NCA Gd/0.01 M lip; assay type: ADME, organism-based; settings: in vivo
[33] = organism: Rattus norvegicus; test: Biodistribution in rat blood in the presence of NCA Gd/0.01 M lip; assay type: ADME, organism-based; settings: in vivo
[34] = tested on: Rattus norvegicus; test: Biodistribution in rat l. intestine in the presence of 50 Gd/kg at 6 hr; assay type: ADME, organism-based; settings: in vivo
[35] = organism: Rattus norvegicus; test: Biodistribution in rat liver by in the presence of 0.05 M Gd/0.15 M lig; assay type: ADME, organism-based; settings: in vivo
[36] = tested on: Rattus norvegicus; test: Biodistribution in rat s. intestine in the presence of 50 Gd/kg at 6 hr; assay type: ADME, organism-based; settings: in vivo
[37] = organism: Rattus norvegicus; test: Biodistribution in rat muscle in the presence of 0.05 M Gd/0.15 M lig; assay type: ADME, organism-based, Muscle tissue; settings: in vivo
[38] = organism: Rattus norvegicus; test: Biodistribution in rat muscle in the presence of NCA Gd/0.01 M lip; assay type: ADME, organism-based, Muscle tissue; settings: in vivo
[39] = tested on: Rattus norvegicus; test: Biodistribution in rat blood in the presence of 50 Gd/kg at 6 hr; assay type: ADME, organism-based; settings: in vivo
[40] = tested on: Rattus norvegicus; test: Biodistribution in rat spleen in the presence of 50 Gd/kg at 15 min; assay type: ADME, organism-based; settings: in vivo, 0.25 h
[41] = organism: Rattus norvegicus; test: Biodistribution in rat kidney in the presence of 0.05 M Gd/0.15 M lig; assay type: ADME, organism-based; settings: in vivo
[42] = organism: Rattus norvegicus; test: Biodistribution in rat blood in the presence of 0.05 M Gd/0.15 M lig; assay type: ADME, organism-based; settings: in vivo
[43] = tested on: Rattus norvegicus; test: Biodistribution in rat spleen in the presence of 50 Gd/kg at 2 hr; assay type: ADME, organism-based; settings: in vivo
[44] = organism: Rattus norvegicus; test: Biodistribution in rat l. intestine in the presence of 0.01 M carrier at 1 hr; assay type: ADME, organism-based; settings: in vivo
[45] = organism: Rattus norvegicus; test: Biodistribution in rat s. intestine in the presence of NCA (No carrier added); assay type: ADME, organism-based; settings: in vivo
[46] = tested on: Rattus norvegicus; test: Biodistribution in rat blood in the presence of 50 Gd/kg at 15 min; assay type: ADME, organism-based; settings: in vivo, 0.25 h
[47] = tested on: Rattus norvegicus; test: Biodistribution in rat stomach in the presence of 50 Gd/kg at 15 min; assay type: ADME, organism-based; settings: in vivo, 0.25 h
[48] = organism: Rattus norvegicus; test: Biodistribution in rat bone in the presence of NCA Gd/0.01 M lip; assay type: ADME, organism-based, Bone element; settings: in vivo
[49] = tested on: Rattus norvegicus; test: Biodistribution in rat l. intestine in the presence of 50 Gd/kg at 2 hr; assay type: ADME, organism-based; settings: in vivo
[50] = organism: Rattus norvegicus; test: Biodistribution in rat heart in the presence of NCA Gd/0.01 M lip; assay type: ADME, organism-based; settings: in vivo

ID/organ [1]: 56.8% | ID/organ [2]: 6.09% | ID/organ [3]: 0.135% | ID/organ [5]: 3.57% | ID/organ [8]: 20.9% | ID/organ [9]: 0.34% | ID/organ [11]: 2.35%
SMILES: OC(CNCCNCC(O)c1ccccc1)c1ccccc1 (stereo not drawn)
ID [4]: 6.36% | Ratio [6]: 1.6% | Ratio [7]: 0.139% | Ratio [10]: 2.14% | Ratio [12]: 0.188 | ID [13]: 56.8% | ID [14]: 6.37%

ID/organ [1]: 27.7% | ID/organ [2]: 4.09% | ID/organ [3]: 0.19% | ID/organ [5]: 2.85% | ID/organ [8]: 41% | ID/organ [9]: 0.28% | ID/organ [11]: 7.25%
SMILES: CC(C)(CO)NCCNC(C)(C)CO
Ratio [15]: 1.61% | ID [16]: 2.56% | Ratio [17]: 0.135% | Ratio [18]: 1.47% | Ratio [19]: 6.78% | ID [20]: 7.23% | ID [13]: 27.7%

ID/organ [21]: 80.2% | ID/organ [22]: 1.03% | ID/organ [23]: 0.059% | ID/organ [24]: 34.2% | ID/organ [25]: 67.3% | ID/organ [26]: 0.339% | ID/organ [27]: 74.3% | ID/organ [28]: 8.12% | ID/organ [29]: 1.18% | ID/organ [30]: 0.178% | ID/organ [31]: 0.26% | ID/organ [32]: 2.67% | ID/organ [33]: 2.62% | ID/organ [34]: 0.293% | ID/organ [35]: 73% | ID/organ [36]: 0.675% | ID/organ [37]: 0.124% | ID/organ [38]: 2.38% | ID/organ [39]: 0.217% | ID/organ [40]: 11.2% | ID/organ [41]: 0.447% | ID/organ [42]: 0.319% | ID/organ [43]: 12.5% | ID/organ [44]: 0.138% | ID/organ [45]: 0.86% | ID/organ [46]: 23.4% | ID/organ [47]: 0.221% | ID/organ [48]: 6.91% | ID/organ [49]: 0.334% | ID/organ [50]: 0.099%
SMILES: CC(C(=O)O)C(C(=O)O)(P(=O)(O)O)P(=O)(O)O (stereo not drawn)
